Data from patent US20140228349A1, “5,7-SUBSTITUTED-IMIDAZO[1,2-C]PYRIMIDINES” (Array BioPharma Inc., priority 2011, published 2014).

Legend:
Type in all cases: biochemical
[1] = molecular target: T1, JAK1 (Homo sapiens, UniProt P23458); test: JAK1 Inhibition Assay (Omnia kinase fluorescence peptide substrate); settings: averaged IC50 ranges; 40 μM (Km app) or 1 mM ATP, 15 nM JAK1
T1 construct: purchased Invitrogen Corporation, Carlsbad, Calif; IVGN PV4775
Description: (§1) The assays described in Examples A, B, C and D for the determination of Tyk2, JAK1, JAK2 and JAK3 kinase activity, respectively, utilized the Omnia® Kinase fluorescence peptide substrate-based technology (Invitrogen). The specific components of the assay mixture are described in Examples A, B, C and D. In these assays, Mg^2+ is chelated upon phosphorylation of the Omnia peptide by the kinase to form a bridge between the chelation-enhanced fluorophore Sox and the phosphate, resulting in an increase in fluorescence emission at 485 nm when excited at […]. The reactions were therefore read at excitation 360 nm and emission was measured at 485 nm every 50 seconds for 45 minutes using a PerkinElmer EnVision Multilabel Plate Reader.
(§2) The final buffer conditions for Tyk2, JAK1, JAK2, and JAK3 assays were as follows: 25 mM HEPES, pH 7.4, 10 mM MgCl2, 0.01% Triton X-100 and 1 mM DTT.
(§3) Compounds were prepared at 50× the final concentration in DMSO by conducting 3-fold serial dilutions from a 500-μM intermediate dilution to give a 10-point dosing curve having a high dose of 10 μM. Two-μL aliquots of these were transferred to a fresh plate for a ten-fold intermediate dilution with assay buffer. Five-μL aliquots of the diluted compounds were then transferred to 20-μL of assay mixtures described in Examples A, B, C and D for a final concentration of DMSO of 2%. A standard or reference compound was typically included on each assay plate to validate that plate. For each plate, percent of control (POC) values were calculated for each well according to the following equation: […]
(§4) IC50's were estimated from the POC's using a standard 4-parameter logistic model:
(§5) The IC50 is defined as the concentration of inhibitor at which the POC equals 50 for the fitted curve.
Compounds of Formula I were screened for their ability to inhibit JAK1 using the general enzyme inhibition assay method, in which the assay mixture contained 40 μM (Km app) or 1 mM ATP, 8 μM Omnia® Y12 peptide (Catalog #IVGN KPZ3121C; Invitrogen Corporation, Carlsbad, Calif.) and 15 nM JAK1 in a total volume of 20 μL. JAK1 was purchased from Invitrogen Corporation, Carlsbad, Calif. (catalog #IVGN PV4775).

[2] = molecular target: T2, JAK3 (Homo sapiens, UniProt P52333); test: JAK3 Inhibition Assay (Omnia kinase fluorescence peptide substrate); settings: averaged IC50 ranges; 10 μM (Km app) or 1 mM ATP, 2.5 nM JAK3
T2 construct: purchased Invitrogen Corporation, Carlsbad, Calif; IVGN PV4080
T2 sequence (P52333 1-1124): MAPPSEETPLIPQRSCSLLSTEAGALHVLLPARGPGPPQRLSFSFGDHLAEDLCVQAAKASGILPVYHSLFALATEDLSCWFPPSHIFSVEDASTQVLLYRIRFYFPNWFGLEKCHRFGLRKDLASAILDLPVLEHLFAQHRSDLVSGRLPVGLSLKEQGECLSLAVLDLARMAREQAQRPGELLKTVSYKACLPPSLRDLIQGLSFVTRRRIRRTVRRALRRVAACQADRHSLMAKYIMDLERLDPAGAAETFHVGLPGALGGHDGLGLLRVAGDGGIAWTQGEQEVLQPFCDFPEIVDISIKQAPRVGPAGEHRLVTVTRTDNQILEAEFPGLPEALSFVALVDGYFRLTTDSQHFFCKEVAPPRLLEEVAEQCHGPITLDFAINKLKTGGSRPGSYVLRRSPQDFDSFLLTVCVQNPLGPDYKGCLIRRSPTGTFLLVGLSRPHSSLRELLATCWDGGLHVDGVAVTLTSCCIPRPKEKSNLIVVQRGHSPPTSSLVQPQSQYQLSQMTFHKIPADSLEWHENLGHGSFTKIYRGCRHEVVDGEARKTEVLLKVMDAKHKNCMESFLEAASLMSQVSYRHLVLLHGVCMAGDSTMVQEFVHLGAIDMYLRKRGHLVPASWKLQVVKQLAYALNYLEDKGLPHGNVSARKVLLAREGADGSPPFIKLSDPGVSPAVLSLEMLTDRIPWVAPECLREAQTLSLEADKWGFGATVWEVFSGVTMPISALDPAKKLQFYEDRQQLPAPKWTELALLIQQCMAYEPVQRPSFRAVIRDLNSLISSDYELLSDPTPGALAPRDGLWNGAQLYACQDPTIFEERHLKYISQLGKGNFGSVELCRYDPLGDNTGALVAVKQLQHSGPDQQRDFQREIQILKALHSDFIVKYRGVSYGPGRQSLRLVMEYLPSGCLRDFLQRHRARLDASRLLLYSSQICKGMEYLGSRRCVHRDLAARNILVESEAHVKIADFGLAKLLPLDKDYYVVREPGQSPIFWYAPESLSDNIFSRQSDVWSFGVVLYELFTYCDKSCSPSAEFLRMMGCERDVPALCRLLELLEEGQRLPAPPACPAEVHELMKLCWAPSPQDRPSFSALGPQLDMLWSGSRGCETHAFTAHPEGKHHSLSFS
Description: as §1, §2, §3, §4, §5
(§6) Compounds of Formula I were screened for their ability to inhibit JAK3 using the general enzyme inhibition assay method, in which the assay mixture contained 10 μM (Km app) or 1 mM ATP, 10 μM Omnia® Y7 peptide (Catalog #IVGN KNZ3071C, Invitrogen Corporation, Carlsbad, Calif.) and 2.5 nM JAK3 in a total volume of 20 μL. JAK3 was purchased from Invitrogen Corporation, Carlsbad, Calif. (catalog #IVGN PV4080).

[3] = molecular target: T3, Human Tyk2 kinase domain (Homo sapiens, UniProt P29597); test: Tyk2 Inhibition Assay (Omnia kinase fluorescence peptide substrate); settings: averaged IC50 ranges; 10 μM (Km app) or 1 mM ATP, 2 nM Tyk2
T3 construct: comprising amino acids 886 to 1187; His10 (10 histidine residues) (C, cleaved yes); made in house
T3 sequence (P29597 886-1187): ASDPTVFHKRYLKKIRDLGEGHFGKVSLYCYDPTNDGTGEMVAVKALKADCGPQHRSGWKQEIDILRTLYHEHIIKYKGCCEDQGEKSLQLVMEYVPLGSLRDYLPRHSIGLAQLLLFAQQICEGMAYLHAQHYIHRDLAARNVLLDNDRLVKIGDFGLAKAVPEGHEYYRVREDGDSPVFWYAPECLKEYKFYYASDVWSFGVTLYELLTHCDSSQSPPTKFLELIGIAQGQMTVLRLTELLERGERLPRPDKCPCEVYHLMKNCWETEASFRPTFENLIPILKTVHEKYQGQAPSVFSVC
Description: as §1, §2, §3, §4, §5
Compounds of Formula I were screened for their ability to inhibit Tyk2 using the general enzyme inhibition assay method, in which the assay mixture contained 10 μM (Km app) or 1 mM ATP, 8 μM Omnia® Y12 peptide (Catalog #IVGN KPZ3121C; Invitrogen Corporation, Carlsbad, Calif.) and 2 nM Tyk2 in a total volume of 20 μL. Human Tyk2 kinase domain, comprising amino acids 886 to 1187 with 10 additional histidine residues (histidine tag) on the carboxy terminus, was expressed and purified from bacculovirus in-house at Array BioPharma Inc. (Boulder, Colo.). The histidine tag was cleaved after purification using standard conditions.

[4] = molecular target: T4, JAK2 (Homo sapiens, UniProt O60674); test: JAK2 Inhibition Assay (Omnia kinase fluorescence peptide substrate); settings: averaged IC50 ranges; 25 μM (Km app) or 1 mM ATP, 5 nM JAK2
T4 construct: purchased Invitrogen Corporation, Carlsbad, Calif; IVGN PV4288
T4 sequence (O60674 whole entry): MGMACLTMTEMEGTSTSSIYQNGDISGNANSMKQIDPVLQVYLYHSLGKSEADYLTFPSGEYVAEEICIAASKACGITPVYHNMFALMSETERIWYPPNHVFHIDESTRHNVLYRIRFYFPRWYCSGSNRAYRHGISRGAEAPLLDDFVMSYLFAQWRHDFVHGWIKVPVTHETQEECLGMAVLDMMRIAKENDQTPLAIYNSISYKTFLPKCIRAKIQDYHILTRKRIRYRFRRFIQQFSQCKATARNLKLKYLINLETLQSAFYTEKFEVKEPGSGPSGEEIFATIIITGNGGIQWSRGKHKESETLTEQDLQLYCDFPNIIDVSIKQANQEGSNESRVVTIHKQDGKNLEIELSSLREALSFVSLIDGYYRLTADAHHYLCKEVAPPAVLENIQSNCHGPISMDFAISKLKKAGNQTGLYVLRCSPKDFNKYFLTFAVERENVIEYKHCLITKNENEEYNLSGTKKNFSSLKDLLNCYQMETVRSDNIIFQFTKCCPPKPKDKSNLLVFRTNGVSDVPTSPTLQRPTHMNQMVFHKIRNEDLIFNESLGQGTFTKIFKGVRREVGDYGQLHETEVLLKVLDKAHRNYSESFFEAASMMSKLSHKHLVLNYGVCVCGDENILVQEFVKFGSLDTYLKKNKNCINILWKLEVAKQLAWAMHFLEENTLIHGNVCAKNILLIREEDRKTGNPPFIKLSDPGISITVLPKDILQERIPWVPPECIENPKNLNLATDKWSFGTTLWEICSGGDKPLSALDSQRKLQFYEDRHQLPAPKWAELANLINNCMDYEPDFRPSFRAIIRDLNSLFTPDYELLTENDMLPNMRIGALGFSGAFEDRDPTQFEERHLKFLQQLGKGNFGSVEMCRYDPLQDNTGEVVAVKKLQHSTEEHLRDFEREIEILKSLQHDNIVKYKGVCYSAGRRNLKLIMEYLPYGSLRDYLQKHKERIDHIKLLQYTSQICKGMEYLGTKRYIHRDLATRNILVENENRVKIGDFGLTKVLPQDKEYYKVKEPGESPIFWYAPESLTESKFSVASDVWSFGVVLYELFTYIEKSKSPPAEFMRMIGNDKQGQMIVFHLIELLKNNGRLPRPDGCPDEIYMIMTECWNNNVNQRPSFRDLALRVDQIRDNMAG
Description: as §1, §2, §3, §4, §5
as §6, with “inhibit JAK2” for “inhibit JAK3”, “contained 25” for “contained 10”, “and 5” for “and 2.5”, “nM JAK2” for “nM JAK3”, “μL. JAK2” for “μL. JAK3”, “#IVGN PV4288).” for “#IVGN PV4080).”

T1 sequence (P23458 whole entry): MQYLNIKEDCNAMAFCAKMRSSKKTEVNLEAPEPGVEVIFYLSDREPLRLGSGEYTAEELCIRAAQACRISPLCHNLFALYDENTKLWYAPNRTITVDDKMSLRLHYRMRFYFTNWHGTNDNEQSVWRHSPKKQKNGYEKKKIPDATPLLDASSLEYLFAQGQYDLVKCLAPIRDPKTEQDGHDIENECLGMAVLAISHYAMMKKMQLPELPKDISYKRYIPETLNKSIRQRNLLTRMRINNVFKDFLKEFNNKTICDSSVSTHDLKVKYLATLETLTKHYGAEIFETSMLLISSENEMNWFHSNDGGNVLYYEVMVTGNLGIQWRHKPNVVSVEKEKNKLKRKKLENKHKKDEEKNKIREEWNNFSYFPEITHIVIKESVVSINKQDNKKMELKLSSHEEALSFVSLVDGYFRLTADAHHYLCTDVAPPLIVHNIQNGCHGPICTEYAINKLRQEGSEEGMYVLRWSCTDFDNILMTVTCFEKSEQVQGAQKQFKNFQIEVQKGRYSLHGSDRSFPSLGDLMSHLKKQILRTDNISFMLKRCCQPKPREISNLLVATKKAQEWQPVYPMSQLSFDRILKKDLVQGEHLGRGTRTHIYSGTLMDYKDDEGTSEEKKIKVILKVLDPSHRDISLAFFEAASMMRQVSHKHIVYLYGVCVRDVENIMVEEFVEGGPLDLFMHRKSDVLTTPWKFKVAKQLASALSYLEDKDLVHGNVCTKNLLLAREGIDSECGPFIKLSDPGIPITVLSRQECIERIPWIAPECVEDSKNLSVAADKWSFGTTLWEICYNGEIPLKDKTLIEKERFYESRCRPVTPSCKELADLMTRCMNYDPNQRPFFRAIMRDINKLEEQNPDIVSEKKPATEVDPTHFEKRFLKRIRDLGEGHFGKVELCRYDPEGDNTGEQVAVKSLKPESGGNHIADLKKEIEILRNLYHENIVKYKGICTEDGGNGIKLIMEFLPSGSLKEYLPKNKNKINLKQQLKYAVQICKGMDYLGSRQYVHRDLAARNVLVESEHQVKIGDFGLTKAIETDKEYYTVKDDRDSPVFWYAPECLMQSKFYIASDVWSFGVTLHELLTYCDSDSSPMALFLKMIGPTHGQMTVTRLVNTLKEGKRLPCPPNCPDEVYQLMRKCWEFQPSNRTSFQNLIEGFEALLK

With `CCOC(=O)CC1(n2cc(-c3nc(-c4cnn(C)c4)cc4nccn34)cn2)CN(S(=O)(=O)C(F)(F)F)C1` [Example 1, ethyl 2-(3-(4-(7-(1-methyl-1H-pyrazol-4-yl)imidazo[1,2-c]pyrimidin-5-yl)-1H-pyrazol-1-yl)-1-(trifluoromethylsulfonyl)azetidin-3-yl)acetate] the IC50 [1] was over 1000 nM, the IC50 [2] was over 1000 nM and the IC50 [3] was 100 to 1000 nM. The IC50 [4] was over 1000 nM.

For `Cn1cc(-c2cc3nccn3c(-c3cnn(C4(CC(=O)O)CN(S(=O)(=O)C(F)(F)F)C4)c3)n2)cn1` [Example 2, 2-(3-(4-(7-(1-methyl-1H-pyrazol-4-yl)imidazo[1,2-c]pyrimidin-5-yl)-1H-pyrazol-1-yl)-1-((trifluoromethyl)sulfonyl)azetidin-3-yl)acetic acid], the IC50 [1] was over 1000 nM, the IC50 [2] was over 1000 nM and the IC50 [3] was 100 to 1000 nM. The IC50 [4] was over 1000 nM.

`Cn1cc(-c2cc3nccn3c(-c3cnn(C4(CCO)CN(S(=O)(=O)C(F)(F)F)C4)c3)n2)cn1` [Example 3, 2-(3-(4-(7-(1-methyl-1H-pyrazol-4-yl)imidazo[1,2-c]pyrimidin-5-yl)-1H-pyrazol-1-yl)-1-((trifluoromethyl)sulfonyl)azetidin-3-yl)ethanol] was tested, and the IC50 [1] was 100 to 1000 nM, the IC50 [2] was 100 to 1000 nM and the IC50 [3] was 10 to 100 nM. The IC50 [4] was 100 to 1000 nM.

Work on `COCCC1(n2cc(-c3nc(-c4cnn(C)c4)cc4nccn34)cn2)CN(S(=O)(=O)C(F)(F)F)C1` [Example 4, 5-(1-(3-(2-methoxyethyl)-1-((trifluoromethyl)sulfonyl)azetidin-3-yl)-1H-pyrazol-4-yl)-7-(1-methyl-1H-pyrazol-4-yl)imidazo[1,2-c]pyrimidine] yielded an IC50 [1] of over 1000 nM, an IC50 [2] of over 1000 nM and an IC50 [3] of 100 to 1000 nM. The IC50 [4] was over 1000 nM.

For `CCn1cc(-c2nc(-c3cnn(C)c3)cc3nccn23)cn1` [Example 5, 5-(1-ethyl-1H-pyrazol-4-yl)-7-(1-methyl-1H-pyrazol-4-yl)imidazo[1,2-c]pyrimidine], the IC50 [1] was over 1000 nM, the IC50 [2] was over 1000 nM and the IC50 [3] was 100 to 1000 nM. For the same compound, the IC50 [4] was 100 to 1000 nM.

For `Cn1cc(-c2cc3nccn3c(-c3cnn(C(CO)C4CC4)c3)n2)cn1` (centres unmarked) [Example 6, 2-cyclopropyl-2-(4-(7-(1-methyl-1H-pyrazol-4-yl)imidazo[1,2-c]pyrimidin-5-yl)-1H-pyrazol-1-yl)ethanol], the IC50 [1] was over 1000 nM, the IC50 [2] was over 1000 nM and the IC50 [3] was 100 to 1000 nM. The IC50 [4] was over 1000 nM.

In the case of `CC#CCCn1cc(-c2nc(-c3cnn(C)c3)cc3nccn23)cn1` [Example 7, 7-(1-Methyl-1H-pyrazol-4-yl)-5-(1-(pent-3-yn-1-yl)-1H-pyrazol-4-yl)imidazo[1,2-c]pyrimidine], the IC50 [1] is reported as over 1000 nM, the IC50 [2] is reported as over 1000 nM and the IC50 [3] is reported as 100 to 1000 nM. For the same compound, the IC50 [4] was over 1000 nM.

Work on `C#CCCn1cc(-c2nc(-c3cnn(C)c3)cc3nccn23)cn1` [Example 8, 5-(1-(But-3-yn-1-yl)-1H-pyrazol-4-yl)-7-(1-methyl-1H-pyrazol-4-yl)imidazo[1,2-c]pyrimidine] yielded an IC50 [1] of 100 to 1000 nM, an IC50 [2] of 100 to 1000 nM and an IC50 [3] of 10 to 100 nM. The IC50 [4] was 10 to 100 nM.

In the case of `Cn1cc(-c2cc3nccn3c(-c3cnn(C(C4CC4)C4CC4)c3)n2)cn1` [Example 9, 5-(1-(Dicyclopropylmethyl)-1H-pyrazol-4-yl)-7-(1-methyl-1H-pyrazol-4-yl)imidazo[1,2-c]pyrimidine], the IC50 [1] is reported as over 1000 nM, the IC50 [2] is reported as 100 to 1000 nM and the IC50 [3] is reported as 10 to 100 nM. For the same compound, the IC50 [4] was 100 to 1000 nM.

`C=CCC(CC1CC1)n1cc(-c2nc(-c3cnn(C)c3)cc3nccn23)cn1` (centres unmarked) [Example 10, 5-(1-(1-Cyclopropylpent-4-en-2-yl)-1H-pyrazol-4-yl)-7-(1-methyl-1H-pyrazol-4-yl)imidazo[1,2-c]pyrimidine] gave an IC50 [1] of 100 to 1000 nM, an IC50 [2] of 100 to 1000 nM and an IC50 [3] of under 10 nM. For the same compound, the IC50 [4] was 10 to 100 nM.

With `Cn1cc(-c2cc3nccn3c(-c3cnn(C(CC4CC4)CC4CC4)c3)n2)cn1` [Example 11, 5-(1-(1,3-Dicyclopropylpropan-2-yl)-1H-pyrazol-4-yl)-7-(1-methyl-1H-pyrazol-4-yl)imidazo[1,2-c]pyrimidine] the IC50 [1] was 100 to 1000 nM, the IC50 [2] was 100 to 1000 nM and the IC50 [3] was 10 to 100 nM. It also gave an IC50 [4] of 10 to 100 nM.

For `CCOC(=O)CC(C1CC1)n1cc(-c2nc(-c3cnn(C)c3)cc3nccn23)cn1` (centres unmarked) [Example 12, Ethyl 3-cyclopropyl-3-(4-(7-(1-methyl-1H-pyrazol-4-yl)imidazo[1,2-c]pyrimidin-5-yl)-1H-pyrazol-1-yl)propanoate], the IC50 [1] was over 1000 nM, the IC50 [2] was over 1000 nM and the IC50 [3] was 100 to 1000 nM. The IC50 [4] was over 1000 nM.

`Cn1cc(-c2cc3nccn3c(-c3ccn([C@H](CCF)[C@H]4CC4(F)F)c3)n2)cn1` [Example 29, 5-(1-((R)-1-((R)-2,2-difluorocyclopropyl)-3-fluoropropyl)-1H-pyrrol-3-yl)-7-(1-methyl-1H-pyrazol-4-yl)imidazo[1,2-c]pyrimidine] showed an IC50 [3] of under 10 nM and an IC50 [4] of 10 to 100 nM.
